# In patent publication US11897850B1, “N′-(2-(5-(4-chlorophenyl)-1,3,4-oxadiazol-2-ylthio)acetoxy)-4-methoxybenzimidamide as an antimicrobial compound” (KING FAISAL UNIVERSITY, priority 2023, dated 2024):
# Legend:
# Format in all cases: cell-based
# Bacillus cereus = test: Agar plate disc-diffusion, antibacterial activity by inhibition zone; settings: nutrient agar, 37° C., 48 h
# Protocol: (§1) The agar plate disc-diffusion method was applied. […] The discs were then placed onto the surface of agar plates (nutrient agar for bacteria and Sabouraud's dextrose agar for fungi) seeded with the test organism. Each plate contained 15 mL of the agar medium, previously seeded with 0.2 mL of the broth culture of each organism pregrown for 18 h. The plates were incubated at 37° C. for 48 h, and 72 h for fungi. The inhibition zones was measured in mm. Discs impregnated with DMSO were used as a control, and its inhibition zone was subtracted from the tested compound actual inhibition zone.
# (§2) The results of the antimicrobial testing can be observed in Tables 1 and 2, below, using ciprofloxacin as a reference.
# Staphylococcus aureus = test: as above; settings: nutrient agar, 37° C., 48 h
# Protocol: as §1, §2
# Escherichia coli = test: as above; settings: nutrient agar, 37° C., 48 h
# Protocol: as §1, §2
# Pseudomonas aeruginosa = test: as above; settings: nutrient agar, 37° C., 48 h
# Protocol: as §1, §2
# Aspergillus flavus = test: Agar plate disc-diffusion, antifungal activity by inhibition zone; settings: Sabouraud's dextrose agar, 72 h
# Protocol: as §1, §2
# [1] = tested on: Chrysosporium keratinophilum; test: as above; settings: Sabouraud's dextrose agar, 72 h
# Protocol: The agar plate disc-diffusion method was applied. Sterilized filter papers (6 mm in diameter) were wetted with 10 μL of a solution N′-(2-(5-(4-chlorophenyl)-1,3,4-oxadiazol-2-ylthio)acetoxy)-4-methoxybenzimidamide (3) to be tested, containing 10 mg/mL in DMSO, and the discs were allowed to air dry. The discs were then placed onto the surface of agar plates (nutrient agar for bacteria and Sabouraud's dextrose agar for fungi) seeded with the test organism. Each plate contained 15 mL of the agar medium, previously seeded with 0.2 mL of the broth culture of each organism pregrown for 18 h. The plates were incubated at 37° C. for 48 h, and 72 h for fungi. The inhibition zones was measured in mm. Discs impregnated with DMSO were used as a control, and its inhibition zone was subtracted from the tested compound actual inhibition zone.
# as §2
# [2] = A = concentration of comp. = 10,000 μL
# [3] = B = concentration of comp. = 30,000 μL
# [4] = C = concentration of comp. = 50,000 μL
SMILES,inhibition zone (Bacillus cereus; [2]) [mm],inhibition zone (Bacillus cereus; [3]) [mm],inhibition zone (Bacillus cereus; [4]) [mm],inhibition zone (Staphylococcus aureus; [2]) [mm],inhibition zone (Staphylococcus aureus; [3]) [mm],inhibition zone (Staphylococcus aureus; [4]) [mm],inhibition zone (Escherichia coli; [2]) [mm],inhibition zone (Escherichia coli; [3]) [mm],inhibition zone (Escherichia coli; [4]) [mm],inhibition zone (Pseudomonas aeruginosa; [2]) [mm],inhibition zone (Pseudomonas aeruginosa; [3]) [mm],inhibition zone (Pseudomonas aeruginosa; [4]) [mm],inhibition zone (Aspergillus flavus; [2]) [mm],inhibition zone (Aspergillus flavus; [3]) [mm],inhibition zone (Aspergillus flavus; [4]) [mm],"inhibition zone [1, 2] [mm]","inhibition zone [1, 3] [mm]","inhibition zone [1, 4] [mm]"
"O=C(O)c1cn(C2CC2)c2cc(N3CCNCC3)c(F)cc2c1=O [Cip., ciprofloxacin]",29,30,42,43,44,53,30,39,60,29,30,53,29,30,42,29,30,53
"COc1ccc(/C(N)=N/OC(=O)CSc2nnc(-c3ccc(Cl)cc3)o2)cc1 [Compound 3, N′-(2-(5-(4-chlorophenyl)-1,3,4-oxadiazol-2-ylthio)acetoxy)-4-methoxybenzimidamide]",28,31,39,20,24,36,29,38,47,24,28,40,21,22,35,24,28,41
